From patent US6630594B2, “Methods of making substituted phenylketoenols” (Bayer Aktiengesellschaft, priority 1996, dated 2003)

Columns and labels:
Format in all cases: in vivo
[1] = test system: green rice leaf hoppers (Nephotettix cincticeps); experiment: Nephotettix-Test (rice seedling dip); details: concentration of active compound 0.1%, after 6 days, rice seedlings dipped
Method: (§1) To produce a suitable preparation of active compound, 1 part by weight of active compound is mixed with the stated amount of solvent and the stated amount of emulsifier, and the concentrate is diluted with water to the desired concentration.
Rice seedlings (Oryzae sativa) are treated by being dipped into the preparation of active compound of the desired concentration and are populated with the green rice leaf hoppers (Nephotettix cincticeps) while the seedlings are still moist.
After the desired period of time, the kill in % is determined. 100% means that all leaf hoppers have been killed; 0% means that none of the leaf hoppers have been killed.

[2] = test system: larvae of the mustard beetle (Phaedon cochleariae); experiment: Phaedon larvae Test (cabbage leaf dip); details: concentration of active compound 0.1%, after 7 days, cabbage leaves dipped
Method: Phaedon larvae Test [table] To produce a suitable preparation of active compound, 1 part by weight of active compound is mixed with the stated amount of solvent and the stated amount of emulsifier, and the concentrate is diluted with water to the desired concentration. Cabbage leaves (Brassica oleracea) are treated by being dipped into the preparation of active compound of the desired concentration and are populated with larvae of the mustard beetle (Phaedon cochleariae) while the leaves are still moist.

[3] = test system: greenhouse red spider mite Tetranychus urticae; experiment: Tetranychus Test (OP-resistent/dip Treatment); details: concentration of active compound 0.1%, after 13 days, infested bean plants dipped, all stages
Method: Tetranychus Test (OP-resistent/dip Treatment)
as §1
Bean plants (Phaseolus vulgaris) which are heavily infested by all stages of the greenhouse red spider mite Tetranychus urticae are dipped into a perparation of active compound of the desired concentration.
After the desired period of time, the kill in % is determined. 100% means that all spider mites haven been killed: 0% means that none of the spider mites have been killed.

[4] = test system: caterpillars of the owlet moth Spodoptera frugiperda; experiment: Spodoptera frugiperda Test (cabbage leaf dip); details: concentration of active compound 0.1%, after 7 days, cabbage leaves dipped
Method: Spodoptera frugiperda Test
as §1
Cabbage leaves (Brassica oleracea) are treated by being dipped into the preparation of active compound of the desired concentration and are populated with caterpillars of the owlet moth Spodoptera frugiperda) while the leaves are still moist.
After the desired period of time, the kill in % is determined. 100% means that all caterpillars have been killed; 0% means that none of the caterpillars haven been killed.

[5] = test system: peach aphids (Myzus persicae); experiment: Myzus-Test (cabbage leaf dip); details: concentration of active compound 0.1%, after 6 days, infested cabbage leaves dipped
Method: To produce a suitable preparation of active compound, 1 part by weight of active compound is mixed with the state amount of solvent and the stated amount of emulsifier, and the concentrate is diluted with water to the desired concentration.
Cabbage leaves (Brassica oleracea) which are heavily infested by peach aphids (Myzus persicae) are treated by being dipped into the preparation of active compound of the desired concentration.
After the desired period of time, the kill in % is determined. 100% means that all aphids have been killed; 0% means that none of the aphids have been killed.

Measured: kill in %

Cc1cc(C)c(C2=C(O)C3(CCCOC3)NC2=O)c(C)c1 (stereo not drawn) [Example I-1-a-1]
100%: [1] | [2] | [3]

Cc1cc(C)c(C2=C(OC(=O)C(C)(C)C)C3(CCCOC3)NC2=O)c(C)c1 (stereo not drawn) [Example I-1-b-1]
100%: [1] | [2] | [3]

CCOC(=O)OC1=C(c2c(C)cc(C)cc2C)C(=O)NC12CCCOC2 (stereo not drawn) [Example I-1-c-1]
100%: [4] | [3] | [5]
